≈ marks a conversion by molar mass, not a printed value. Each block holds one compound with its values, some of them ahead of it.
Legend:
MCF-7 [1] = assay: Sulforhodamine B antiproliferative assay, 72 h, normal/hypoxia, MCF-7; type: cell-based, human; details: for IC50 [μg/ml] MCF-7 hypoxia / IC50 [μg/ml] MCF-7 normal / IC50: 72 hours exposition; for IC50: Homo sapiens, MCF7
Protocol: (§1) Anticancer activity of selected compounds of invention, PDI A3-inhibitors has been also tested in vitro in antiproliferative assay in normoxic and hypoxic conditions as well in estrogen-stimulated cancer cells. In the experiment, cells were seeded on 96-well plates (Sarstedt, Germany) in appropriate culture medium at a density of 10^5 cells/mL 24 h before adding the tested compounds. Cells were treated with each compound in four concentrations in the range 0.1-100 μg/mL. […] After 72 h of compound treatment at 37° C., 5% CO2 humid atmosphere and in wo different oxygen level conditions: 21%—normal and <1%—hypoxia. In some experiments the MDA-MB-231 and MCF-7 cells were seeded with or without 200 nM estradiol and after 24 h the tested compounds were added. A previously described sulforhodamine B antiproliferative assay was used with minor modifications (Skehan P et al., 1990). Briefly, cells were fixed with 50 μL/well of 50% (w/v) trichloroacetic acid (Avantor Performance Materials, Gliwice, Poland). After 1 h incubation, plates were washed several times with tap water and 50 μL of 0.4% (w/v) solution of sulforhodamine B (Sigma-Aldrich, Germany) in 1% (v/v) acetic acid (Avantor Performance Materials, Gliwice, Poland) was added to each well. After 30 min incubation at room temperature, unbound dye was washed out with 1% (v/v) acetic acid, whereas bound dye was solubilized with 10 mM unbuffered TRIS (Avantor Performance Materials, Gliwice, Poland) solution. The entire procedure was performed using a BioTek EL-406 washing station (BioTek Instruments, USA). After additional 30 min, absorbance was read using a Biotek Hybrid H4 reader (BioTek Instruments, USA) at 540 nm wavelength. MTT assay was used alternatively for HL-60 cell line and in the experiment in which estrogens are added (specified in the table legend). Absorbance was measured using a Biotek Hybrid H4 reader at 570 nm wavelength for MTT assay.
(§2) Compounds at each concentration were tested in triplicate in a single experiment and each experiment was repeated at least three times independently. Results are presented as mean IC50±SD.

MDA-MB-231 [2] = assay: Sulforhodamine B antiproliferative assay, 72 h, normal/hypoxia, MDA-MB-231; type: cell-based, human; details: 72 hours exposition; for IC50: Homo sapiens, MDA-MB-231
Protocol: as §1, §2

CaCo-2 [3] = assay: Sulforhodamine B antiproliferative assay, 72 h, Caco-2; type: cell-based, human; details: normal (21% of oxygen), 72 hours exposition
HT-29 = assay: Sulforhodamine B antiproliferative assay, 72 h, HT-29; type: cell-based, human; details: normal (21% of oxygen), 72 hours exposition
Protocol: as §1, §2

MCF-7 [4] = assay: MTT antiproliferative assay, 48 h, MCF-7; type: cell-based, human; details: for IC50: Homo sapiens, MCF7, 48-hour exposition, read-out: Cytotoxicity, IC50, μM MCF-7
Protocol: (§3) Anticancer activity of compounds of invention, PDI A3-inhibitors has been tested in vitro in classical antiproliferative assay in various cancer cells lines. Monolayer tumor cell lines MDA-MB-231 (human mammary breast adenocarcinoma), MCF-7 (human breast adenocarcinoma, estrogen-positive), HT-1080 (human fibrosarcoma) and Caco-2 (human colon adenocarcinoma) were cultured in standard medium DMEM (Dulbecco's modified Eagle's medium) (“Sigma”) supplemented with 10% foetal bovine serum (“Sigma”). About 2000-4000 cells per well (depending on line nature) were placed in 96-well plates and after 24 h compounds were added to the wells. Untreated cells were used as a control. The plates were incubated for 48 h, 37° C., 5% CO2. The number of surviving cells was determined using 3-(4,5-dimethylthiazol-2-yl)-2,5-diphenyltetrazolinium bromide (MTT). MTT-test: after incubating culture medium was removed and 200 μL fresh medium with 20 μL MTT (2 mg/mL in HBSS) was added in each well of the plate. After incubation (3 hr., 37° C., 5% CO2), the medium with MTT was removed and 200 μL DMSO were added at once to each sample. The samples were tested at 540 nm on Thermo Scientific Multiskan EX microplate photometer. The half-maximal inhibitory concentration (IC50) of each compound was calculated using Graph Pad Prism® 3.0.

MDA-MB-231 [5] = assay: MTT antiproliferative assay, 48 h, MDA-MB-231; type: cell-based, human; details: for IC50: Homo sapiens, MDA-MB-231, 48-hour exposition, read-out: Cytotoxicity, IC50, μM MDA-MB-231
Protocol: as §3

CaCo-2 [6] = assay: MTT antiproliferative assay, 48 h, Caco-2; type: cell-based, human
Protocol: as §3

PDI A3 = biological target: T1, PDI A3 (Homo sapiens, UniProt P30101); assay: PDI A3 inhibition, insulin turbidimetric assay; type: biochemical; details: 10 ug/ml PDI A3, incubated 60 min at 37° C., turbidity at 650 nm; read-out: Inhibition of PDI A3 (EC 50)
T1 construct: purchased Mybiosource; host or cells: E. coli
T1 sequence (P30101 25-505): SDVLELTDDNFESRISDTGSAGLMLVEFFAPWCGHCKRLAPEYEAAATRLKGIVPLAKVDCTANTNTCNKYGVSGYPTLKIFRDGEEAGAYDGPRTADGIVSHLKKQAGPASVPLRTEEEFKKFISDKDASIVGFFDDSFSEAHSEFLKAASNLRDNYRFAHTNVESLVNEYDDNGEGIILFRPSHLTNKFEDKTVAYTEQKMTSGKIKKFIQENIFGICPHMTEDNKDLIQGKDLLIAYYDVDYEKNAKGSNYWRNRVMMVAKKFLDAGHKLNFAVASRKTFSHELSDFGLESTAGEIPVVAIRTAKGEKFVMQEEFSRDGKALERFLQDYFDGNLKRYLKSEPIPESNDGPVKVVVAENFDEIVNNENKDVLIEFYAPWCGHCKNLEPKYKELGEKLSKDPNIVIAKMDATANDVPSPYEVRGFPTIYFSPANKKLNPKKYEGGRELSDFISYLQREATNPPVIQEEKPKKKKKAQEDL
Protocol: The inhibitory effects compounds of invention on activity of PDIA3 was assess based on the insulin turbidimetric assay. Enzymatic activity of PDIA3 was confirmed by measuring the turbidity increase at 650 nm due to insulin reduction. The assay mixture was prepared by addition 10 ug/ml PDI A3 (E. coli recombinant protein; Mybiosource), […] phosphate buffer (pH7.6), 1 mM EDTA, 0.087 mM DTT and with or without tested compound and was incubated for 60 min, at 37° C. Reaction was started by addition of insulin and DTT. Final concentration of insulin and DTT in assay mixture were 0.15 mMv and 0.174 mMv, respectively. Turbidity was detected at 650 nm against reference samples without PDJs. The measurements were performed at 650 nm using 120-s recordings.

Structure (SMILES): COc1ccc(N2C(=O)/C(=C\c3ccc([N+](=O)[O-])s3)SC2=S)cc1 [CCF642]
- IC50 [μg/ml] MCF-7 hypoxia (MCF-7 [1]; hypoxia (<1% of oxygen)): 0.6 ± 0.6 µg/mL (≈ 1.59 µM)
- IC50 [μg/ml] MCF-7 normal (MCF-7 [1]; normal (21% of oxygen)): 0.7 ± 0.5 µg/mL (≈ 1.85 µM)
- IC50 [μg/ml] MDA-MB-231 hypoxia (MDA-MB-231 [2]; hypoxia (<1% of oxygen)): 0.3 ± 0.2 µg/mL (≈ 0.793 µM)
- IC50 [μg/ml] MDA-MB-231 normal (MDA-MB-231 [2]; normal (21% of oxygen)): 0.3 ± 0.1 µg/mL (≈ 0.793 µM)
- IC50 [μg/ml] Caco-2 normal (CaCo-2 [3]): 0.4 ± 0.1 µg/mL (≈ 1.06 µM)
- IC50 [μg/ml] HT-29 normal (HT-29): 0.4 ± 0.05 µg/mL (≈ 1.06 µM)

Structure (SMILES): N.N.[Cl][Pt][Cl] [Cisplatin]
- IC50 [μg/ml] MCF-7 hypoxia (MCF-7 [1]; hypoxia (<1% of oxygen)): 1.3 ± 0.5 µg/mL
- IC50 [μg/ml] MCF-7 normal (MCF-7 [1]; normal (21% of oxygen)): 1.8 ± 0.3 µg/mL
- IC50 [μg/ml] MDA-MB-231 hypoxia (MDA-MB-231 [2]; hypoxia (<1% of oxygen)): 3.1 ± 0.9 µg/mL
- IC50 [μg/ml] MDA-MB-231 normal (MDA-MB-231 [2]; normal (21% of oxygen)): 3.2 ± 0.5 µg/mL
- IC50 [μg/ml] HT-29 normal (HT-29): 2.82 ± 0.6 µg/mL

Structure (SMILES): NC(=O)C1CN1S(=O)(=O)c1ccc([N+](=O)[O-])cc1 (stereo not shown) [Compound C-3216, 1-(4-Nitrophenyl)sulfonylaziridine-2-carboxamide]
- IC50 (MCF-7 [1]; hypoxia (<1% of oxygen), read-out: IC50 [μg/ml] MCF-7 hypoxia): 3.6 ± 0.3 µg/mL (≈ 13.3 µM)
- IC50 (MCF-7 [1]; normal (21% of oxygen), read-out: IC50 [μg/ml] MCF-7 normal): 3.7 ± 0.4 µg/mL (≈ 13.6 µM)
- Antiproliferative effect, normoxic versus hypoxic conditions (MCF-7 [1]; MCF-7 and MDA-MB-231, Table 3): comparable
- IC50 (MDA-MB-231 [2]; hypoxia (<1% of oxygen), read-out: IC50 [μg/ml] MDA-MB-231 hypoxia): 6.2 ± 3.7 µg/mL (≈ 22.9 µM)
- IC50 (MDA-MB-231 [2]; normal (21% of oxygen), read-out: IC50 [μg/ml] MDA-MB-231 normal): 5 ± 1.4 µg/mL (≈ 18.4 µM)
- IC50 (CaCo-2 [3]; Homo sapiens, Caco-2, read-out: IC50 [μg/ml] Caco-2 normal): 4.5 ± 0.8 µg/mL (≈ 16.6 µM)
- IC50 (HT-29; Homo sapiens, HT-29, read-out: IC50 [μg/ml] HT-29 normal): 5.6 ± 0.9 µg/mL (≈ 20.6 µM)

Structure (SMILES): CCCCCCc1ccc(S(=O)(=O)N2CC2C(=O)OC)cc1 (stereo not shown) [Compound C-3287, Methyl 1-(4-hexylphenyl)sulfonylaziridine-2-calboxylate]
- IC50 (MCF-7 [4]): 123 ± 17 µM

Structure (SMILES): COC(=O)C1CN1S(=O)(=O)c1ccc(C(C)(C)C)cc1 (stereo not shown) [Compound C-3290, Methyl 1-(4-tert-butylphenyl)sulfonylaziridine-2-carboxylate]
- IC50 (MCF-7 [4]): 29 ± 4 µM

Structure (SMILES): COC(=O)C1CN1S(=O)(=O)c1ccccc1C (stereo not shown) [Compound C-3320, Methyl 1-(o-tolylsulfonyl)aziridine-2-carboxylate]
- IC50 (MDA-MB-231 [5]): 380 ± 15 µM

Structure (SMILES): COC(=O)C1CN1S(=O)(=O)c1ccc2cc(OC)ccc2c1 (stereo not shown) [Compound C-3327, Methyl 1-[(6-methoxy-2-naphthyl)sulfonyl]aziridine-2-carboxylate]
- IC50 (CaCo-2 [6]; Homo sapiens, Caco-2, 48-hour exposition, read-out: Cytotoxicity, IC50, μM CaCo-2): 150 ± 10 µM

- EC50 (PDI A3): 4.3 µM
Structure (SMILES): CN(C)C(=O)C1CN1S(=O)(=O)c1cccc2cc(N(C)C)ccc12 (stereo not shown) [Compound C-3377, 1-[[6-(Dimethylamino)-1-naphthyl]sulfonyl]-N,N-dimethylaziridine-2-carboxamide]
- IC50 (MCF-7 [4]): 4.8 ± 0.1 µM

Structure (SMILES): COC(=O)C1CN1S(=O)(=O)c1ccc2cc(N(C)C)ccc2c1 (stereo not shown) [Compound C-3397, Methyl 1-[[6-(dimethylamino)-2-naphthyl]sulfonyl]aziridine-2-carboxylate]
- IC50 (MDA-MB-231 [5]): 38 ± 2 µM

- EC50 (PDI A3): 130 µM
- melting point: 197 to 199 °C
Structure (SMILES): CN(C)c1ccc2c(S(=O)(=O)N3CC3C(N)=O)cccc2c1 (stereo not shown) [Compound C-3459, 1-[[6-(Dimethylamino)-1-naphthyl]sulfonyl]aziridine-2-carboxamide]
- Cytotoxicity, IC50, μM CaCo-2 (CaCo-2 [6]; 48-hour exposition): n.e.
- Cytotoxicity, IC50, μM MDA-MB-231 (MDA-MB-231 [5]; 48-hour exposition): n.e.
- Cytotoxicity, IC50, μM MCF-7 (MCF-7 [4]; 48-hour exposition): n.e.

Structure (SMILES): CCCCCCc1ccc(S(=O)(=O)N2CC2C(=O)N2CCOCC2)cc1 (stereo not shown) [Compound C-3517, [1-(4-Hexylphenyl)sulfonylaziridin-2-yl]-morpholino-methanone]
- IC50 (MDA-MB-231 [5]): 12 ± 1 µM

Structure (SMILES): O=C(C1CC1)N1CCN(Cn2sc3ccccc3c2=O)CC1 [LOC14]
- IC50 [μg/ml] MCF-7 hypoxia (MCF-7 [1]; hypoxia (<1% of oxygen)): 3.9 ± 0.3 µg/mL (≈ 12.3 µM)
- IC50 [μg/ml] MCF-7 normal (MCF-7 [1]; normal (21% of oxygen)): 4.4 ± 0.9 µg/mL (≈ 13.9 µM)
- IC50 [μg/ml] MDA-MB-231 hypoxia (MDA-MB-231 [2]; hypoxia (<1% of oxygen)): 2.6 ± 0.5 µg/mL (≈ 8.19 µM)
- IC50 [μg/ml] MDA-MB-231 normal (MDA-MB-231 [2]; normal (21% of oxygen)): 2.8 ± 0.4 µg/mL (≈ 8.82 µM)
- IC50 [μg/ml] Caco-2 normal (CaCo-2 [3]): 9.1 ± 3.4 µg/mL (≈ 28.7 µM)
- IC50 [μg/ml] HT-29 normal (HT-29): 12.6 ± 8.4 µg/mL (≈ 39.7 µM)

From patent publication US20230069886A1, “AROMATIC SULPHONAMIDES DERIVATIVES THAT INHIBITS PDI A3, THEIR SYNTHESIS AND USE” (Uniwersytet Jagiellonski, priority 2020, published 2023)
